Laboratory results: ChEMBL document CHEMBL6109157, “Tertiary Alcohol: Reaping the Benefits but Minimizing the Drawbacks of Hydroxy Groups in Drug Discovery” (J Med Chem, 2025)

Tests used:
[1] = Binding affinity to [125I] radiolabelled Angiotensin-2 receptor in bovine adrenal cortex membrane; format: cell membranes, Bos taurus
[2] = In vivo inhibition of Angiotensin II-induced pressor response in Wistar rat model at 0.3 mg/kg, po and measured for 6 hrs; format: functional
Mus musculus [3] = assay: Dose normalized in AUC mouse at 50 mg/kg by LC-MS/MS analysis; format: ADME, organism-based; details: in vivo
[4] = AUC in mouse at 50 mg/kg, po measured for 40 mins by LC-MS/MS analysis; format: ADME, organism-based; details: in vivo
[5] = target: Dual specificity mitogen-activated protein kinase kinase 1 (Homo sapiens, UniProt Q02750); assay: Inhibition of MEK1 (unknown origin) phosphorylation
Dual specificity mitogen-activated protein kinase kinase 1, sequence (Q02750 whole entry): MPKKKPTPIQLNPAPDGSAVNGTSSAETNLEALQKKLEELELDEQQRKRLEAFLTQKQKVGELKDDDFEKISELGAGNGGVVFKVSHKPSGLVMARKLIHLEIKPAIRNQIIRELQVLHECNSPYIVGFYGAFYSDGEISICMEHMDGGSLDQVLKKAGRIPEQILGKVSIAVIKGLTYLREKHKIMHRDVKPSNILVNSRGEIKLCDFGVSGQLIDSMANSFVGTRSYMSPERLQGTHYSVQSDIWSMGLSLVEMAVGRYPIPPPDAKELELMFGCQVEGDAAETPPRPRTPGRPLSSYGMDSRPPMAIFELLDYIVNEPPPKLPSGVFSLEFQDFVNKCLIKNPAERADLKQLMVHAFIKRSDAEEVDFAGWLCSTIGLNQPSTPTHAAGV

Mus musculus [6] = assay: Dose normalized in AUC mouse at 25 mg/kg by LC-MS/MS analysis; format: ADME, organism-based; details: in vivo
[7] = AUC in po dosed mouse at 25 mg/kg by LC-MS/MS analysis; format: ADME, organism-based; details: in vivo

Structure (SMILES) | IC50 [1] | inhibition in vivo at 0.3 mg/kg [2] | further results
CCCc1nc(CC)c(C(=O)O)n1Cc1ccc(-c2ccccc2-c2nn[nH]n2)cc1 | 12 nM |  | 
CCCc1nc(C(C)C)c(C(=O)O)n1Cc1ccc(-c2ccccc2-c2nn[nH]n2)cc1 | 46 nM |  | 
CCCc1nc(CO)c(C(=O)O)n1Cc1ccc(-c2ccccc2-c2nn[nH]n2)cc1 | 6.9 nM | 65% | 
Nc1nccn2c(C3CCC3)nc(-c3ccc4ccc(-c5ccccc5)nc4c3)c12 |  |  | AUC/dose (Mus musculus [3]): 103.4 ng·h/mL/mg/kg; AUC [4]: 5170 ng·h/mL
CCCc1nc(C)c(C(=O)O)n1Cc1ccc(-c2ccccc2-c2nn[nH]n2)cc1 | 11 nM |  | 
CCCc1nc(C(C)O)c(C(=O)O)n1Cc1ccc(-c2ccccc2-c2nn[nH]n2)cc1 (centres undefined) | 4.9 nM | 69% | 
O=C(c1ccc(F)c(F)c1Nc1ccc(I)cc1F)N1CC(O)([C@@H]2CCCCN2)C1 [COBIMETINIB] |  |  | IC50 [5]: 0.2 nM
C[C@]1(O)C[C@@H](c2nc(-c3ccc4ccc(-c5ccccc5)nc4c3)c3c(N)nccn32)C1 [LINSITINIB] |  |  | AUC/dose (Mus musculus [6]): 1069.6 ng·h/mL/mg/kg; AUC [7]: 26700 ng·h/mL
CCCc1nc(C(C)(C)O)c(C(=O)O)n1Cc1ccc(-c2ccccc2-c2nnn[nH]2)cc1 [OLMESARTAN] | 8.1 nM | 78% | 
